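How tested: cells in 96-well plates exposed to compound for 48 hours at five concentrations. TGI: total growth inhibition.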
Legend:
Assay in all cases: inhibition of tumour cell growth, NCI panel, 48 h
[1] = test system: PC-3 prostate
[2] = test system: A498 renal
[3] = test system: U251 CNS
[4] = test system: TK-10 renal
[5] = test system: UO-31 renal
[6] = test system: NCI/ADR-RES ovarian
[7] = test system: LOX IMVI melanoma
[8] = test system: SF-295 CNS
[9] = test system: HCT-116 colon
[10] = test system: OVCAR-3 ovarian
[11] = test system: MDA-MB-231 breast
[12] = test system: SF-539 CNS
[13] = test system: UACC-257 melanoma
[14] = test system: A549 NSCLC
[15] = test system: BT-549 breast
[16] = test system: NCI-H23 lung
[17] = test system: SK-OV-3 ovarian
[18] = test system: NCI-H522 lung
[19] = test system: CCRF-CEM leukemia
[20] = test system: SN12C renal

`CS(=O)(=O)c1ccc(C(=O)O[C@@H]2C(=O)N3CC[C@H]4OC(O)[C@@H]2[C@H]43)cc1` (stereo partly specified) gave a TGI [1] greater than 100 µM, a TGI [2] greater than 100 µM and a TGI [3] greater than 100 µM. It also gave a TGI [4] greater than 100 µM, a TGI [5] greater than 100 µM and a TGI [6] greater than 100 µM. For the same molecule, the TGI [7] was greater than 100 µM, the TGI [8] was greater than 100 µM and the TGI [9] was greater than 100 µM. For the same molecule, the TGI [10] was greater than 100 µM, the TGI [11] was greater than 100 µM and the TGI [12] was greater than 100 µM. For the same molecule, the TGI [13] was greater than 100 µM, the TGI [14] was greater than 100 µM and the TGI [15] was greater than 100 µM. It also gave a TGI [16] greater than 100 µM and a TGI [17] greater than 100 µM.
With `CC1=C(O)C(=O)C2C(=O)C1C(C)C2c1ccccc1` (stereo unspecified) the TGI [2] was greater than 100 µM, the TGI [3] was greater than 100 µM and the TGI [4] was greater than 100 µM. It also gave a TGI [5] greater than 100 µM, a TGI [18] greater than 100 µM and a TGI [7] greater than 100 µM. The TGI [8] was greater than 100 µM, the TGI [10] was greater than 100 µM and the TGI [12] was greater than 100 µM. The TGI [13] was greater than 100 µM, the TGI [14] was greater than 100 µM and the TGI [16] was greater than 100 µM. It also gave a TGI [19] greater than 100 µM and a TGI [17] greater than 100 µM.
`CSc1nc2nccnc2c(=O)[nH]1` gave a TGI [2] greater than 100 µM, a TGI [20] greater than 100 µM and a TGI [3] greater than 100 µM. The TGI [4] was greater than 100 µM, the TGI [5] was greater than 100 µM and the TGI [18] was greater than 100 µM. The TGI [7] was greater than 100 µM, the TGI [8] was greater than 100 µM and the TGI [9] was greater than 100 µM. It also gave a TGI [13] greater than 100 µM, a TGI [14] greater than 100 µM and a TGI [16] greater than 100 µM. The TGI [19] was greater than 100 µM and the TGI [17] was greater than 100 µM.
`Cc1cn(C(CO)OC(CO)CN(O)C2C3CC4CC(C3)CC2C4)c(=O)[nH]c1=O` (stereo unspecified) showed a TGI [1] greater than 100 µM, a TGI [2] greater than 100 µM and a TGI [20] greater than 100 µM. For the same molecule, the TGI [3] was greater than 100 µM, the TGI [4] was greater than 100 µM and the TGI [5] was greater than 100 µM. For the same molecule, the TGI [8] was greater than 100 µM, the TGI [9] was greater than 100 µM and the TGI [11] was greater than 100 µM. For the same molecule, the TGI [12] was greater than 100 µM, the TGI [13] was greater than 100 µM and the TGI [14] was greater than 100 µM. The TGI [15] was greater than 100 µM, the TGI [16] was greater than 100 µM and the TGI [17] was greater than 100 µM.
`CCSC1=N/C(=C\c2ccco2)C(Nc2ccc(C)cc2)=N1` gave a TGI [1] greater than 100 µM, a TGI [2] greater than 100 µM and a TGI [20] greater than 100 µM. It also gave a TGI [3] greater than 100 µM, a TGI [4] greater than 100 µM and a TGI [5] greater than 100 µM. The TGI [6] was greater than 100 µM, the TGI [18] was greater than 100 µM and the TGI [7] was greater than 100 µM. The TGI [8] was greater than 100 µM, the TGI [9] was greater than 100 µM and the TGI [10] was greater than 100 µM. For the same molecule, the TGI [11] was greater than 100 µM, the TGI [14] was greater than 100 µM and the TGI [16] was greater than 100 µM. For the same molecule, the TGI [19] was greater than 100 µM and the TGI [17] was greater than 100 µM.
`OC(c1cc2ccccc2[nH]1)C(O)(c1cc2ccccc2[nH]1)c1cc2ccccc2[nH]1` (stereo unspecified) was tested, and the TGI [20] was 11.4 µM, the TGI [3] was 78.4 µM and the TGI [4] was 90.3 µM. For the same molecule, the TGI [18] was 37.5 µM, the TGI [7] was 41.8 µM and the TGI [8] was 31.3 µM. For the same molecule, the TGI [9] was 27.3 µM, the TGI [10] was 9.13 µM and the TGI [12] was 88.7 µM. For the same molecule, the TGI [13] was 64.6 µM, the TGI [14] was 63 µM and the TGI [16] was 21 µM. The TGI [19] was greater than 245 µM and the TGI [17] was 79.1 µM.
Molecule `C[C@@H](c1ccccc1)N1C[C@@H](c2ccc3c(c2)OCO3)[C@@H]2C(=O)CCC[C@@H]21` has a TGI [1] greater than 100 µM, a TGI [2] of 59.1 µM and a TGI [20] greater than 100 µM. The TGI [3] was greater than 100 µM, the TGI [4] was greater than 100 µM and the TGI [5] was greater than 100 µM. It also gave a TGI [6] greater than 100 µM, a TGI [18] greater than 100 µM and a TGI [7] greater than 100 µM. For the same molecule, the TGI [8] was greater than 100 µM, the TGI [9] was greater than 100 µM and the TGI [11] was greater than 100 µM. It also gave a TGI [13] greater than 100 µM, a TGI [14] greater than 100 µM and a TGI [16] greater than 100 µM. The TGI [19] was greater than 100 µM and the TGI [17] was greater than 100 µM.
`CC(C)CC(C#CCCOC(=O)c1ccccc1)OC(=O)c1ccccc1` (stereo unspecified) was tested, and the TGI [1] was greater than 10 µM, the TGI [2] was greater than 10 µM and the TGI [20] was greater than 10 µM. For the same molecule, the TGI [3] was greater than 10 µM, the TGI [4] was greater than 10 µM and the TGI [5] was greater than 10 µM. For the same molecule, the TGI [7] was greater than 10 µM, the TGI [8] was greater than 10 µM and the TGI [9] was greater than 10 µM. It also gave a TGI [10] greater than 10 µM, a TGI [11] greater than 10 µM and a TGI [12] greater than 10 µM. For the same molecule, the TGI [13] was greater than 10 µM, the TGI [14] was greater than 10 µM and the TGI [15] was greater than 10 µM. It also gave a TGI [16] greater than 10 µM, a TGI [19] greater than 10 µM and a TGI [17] greater than 10 µM.
With `CC1CN=C(N(C(=O)Nc2ccc(Cl)cc2)c2cccc(Cl)c2)S1` (stereo unspecified) the TGI [1] was greater than 100 µM, the TGI [2] was 91.8 µM and the TGI [20] was 83.9 µM. For the same molecule, the TGI [3] was greater than 100 µM, the TGI [4] was 62.1 µM and the TGI [5] was greater than 100 µM. It also gave a TGI [6] greater than 100 µM, a TGI [7] greater than 100 µM and a TGI [8] greater than 100 µM. The TGI [9] was greater than 100 µM, the TGI [10] was greater than 100 µM and the TGI [11] was greater than 100 µM. The TGI [12] was greater than 100 µM, the TGI [13] was greater than 100 µM and the TGI [14] was greater than 100 µM. It also gave a TGI [16] greater than 100 µM, a TGI [19] greater than 100 µM and a TGI [17] greater than 100 µM.
`O=C1C2CCCC2N1Cc1ccccc1` (stereo unspecified) gave a TGI [2] greater than 100 µM, a TGI [20] greater than 100 µM and a TGI [4] greater than 100 µM. It also gave a TGI [5] of 28.5 µM, a TGI [6] greater than 100 µM and a TGI [18] greater than 100 µM. It also gave a TGI [7] greater than 100 µM, a TGI [8] greater than 100 µM and a TGI [9] greater than 100 µM. For the same molecule, the TGI [10] was greater than 100 µM, the TGI [12] was greater than 100 µM and the TGI [13] was greater than 100 µM. The TGI [16] was greater than 100 µM, the TGI [19] was greater than 100 µM and the TGI [17] was greater than 100 µM.
Molecule `CCCNC(=O)Cn1c2c(c3ccccc31)CCCC2` has a TGI [1] greater than 100 µM, a TGI [2] greater than 100 µM and a TGI [20] greater than 100 µM. The TGI [4] was greater than 100 µM, the TGI [5] was 89.9 µM and the TGI [6] was greater than 100 µM. The TGI [7] was greater than 100 µM, the TGI [8] was greater than 100 µM and the TGI [9] was greater than 100 µM. For the same molecule, the TGI [10] was greater than 100 µM, the TGI [12] was greater than 100 µM and the TGI [13] was greater than 100 µM. The TGI [14] was greater than 100 µM, the TGI [15] was greater than 100 µM and the TGI [16] was greater than 100 µM. For the same molecule, the TGI [19] was greater than 100 µM and the TGI [17] was greater than 100 µM.
Work on `COC(=O)CC(C(C(=O)OCc1ccccc1)C(C)O)N1C(=O)OCC1c1ccccc1` (stereo unspecified) yielded a TGI [2] greater than 100 µM, a TGI [20] greater than 100 µM and a TGI [3] greater than 100 µM. For the same molecule, the TGI [4] was greater than 100 µM, the TGI [5] was 90.6 µM and the TGI [7] was greater than 100 µM. It also gave a TGI [8] greater than 100 µM, a TGI [9] greater than 100 µM and a TGI [10] greater than 100 µM. It also gave a TGI [12] greater than 100 µM, a TGI [13] greater than 100 µM and a TGI [14] greater than 100 µM. It also gave a TGI [16] greater than 100 µM and a TGI [19] greater than 100 µM.
Work on `CCc1cc2c(cc1C(=O)CCC(=O)O)CC1(C2)Cc2cc(CC)c(C(=O)CCC(=O)O)cc2C1` yielded a TGI [1] greater than 100 µM, a TGI [2] greater than 100 µM and a TGI [20] greater than 100 µM. It also gave a TGI [3] greater than 100 µM, a TGI [4] greater than 100 µM and a TGI [5] greater than 100 µM. The TGI [6] was greater than 100 µM, the TGI [18] was greater than 100 µM and the TGI [7] was greater than 100 µM. It also gave a TGI [8] greater than 100 µM, a TGI [9] greater than 100 µM and a TGI [10] greater than 100 µM. The TGI [11] was greater than 100 µM, the TGI [12] was greater than 100 µM and the TGI [13] was greater than 100 µM. The TGI [14] was greater than 100 µM, the TGI [16] was greater than 100 µM and the TGI [19] was greater than 100 µM. The TGI [17] was greater than 100 µM.
For `CCOP(=O)(OCC)/C(=C\n1ccc(=O)[nH]c1=S)C(=O)OC`, the TGI [1] was greater than 100 µM, the TGI [2] was greater than 100 µM and the TGI [20] was greater than 100 µM. The TGI [3] was greater than 100 µM, the TGI [5] was greater than 100 µM and the TGI [6] was greater than 100 µM. For the same molecule, the TGI [18] was greater than 100 µM, the TGI [7] was greater than 100 µM and the TGI [8] was greater than 100 µM. It also gave a TGI [9] greater than 100 µM, a TGI [11] greater than 100 µM and a TGI [12] greater than 100 µM. It also gave a TGI [13] greater than 100 µM, a TGI [14] greater than 100 µM and a TGI [16] greater than 100 µM. It also gave a TGI [19] greater than 100 µM and a TGI [17] greater than 100 µM.
